For one data set, the system named is dopamine receptor. The following applies: literature; cited from earlier work.
In data set [1] the test system is prolactin. The following applies: literature; cited from earlier work.
The test system of another data set is Parkinsonism. The following applies: literature; cited from earlier work.
The target in the next data set is dopamine receptors. As to the kind of experiment: inhibition of high affinity binding of tritiated dopamine to dopamine receptors in membranes from striatal synaptosomes of bovine brain. The following applies: for Ki: Table 3, tritiated dopamine, striatal synaptosomes of bovine brain.
In data set [2] the test system is prolactin. Nature of the data set: inhibition of serum prolactin in reserpine-pretreated male rats. The data set is classed as in vivo, rat (Sprague-Dawley). The following applies: for inhibition at 0.05 mg/kg: Rattus norvegicus, ip, read-out: Percent Inhibition of Serum Prolactin. Here is the method: Adult male rats of the Sprague-Dawley strain weighing about 200 g. were housed in an air-conditioned room with controlled lighting (lights on 6 a.m.-8 p.m.) and fed lab chow and water ad libitum. Each rat received an intraperitoneal injection of 2.0 mg. of reserpine in aqueous suspension 18 hours before administration of the ergoline derivative. The purpose of the reserpine was to keep prolactin levels uniformly elevated. The compounds under test were dissolved in 10 percent ethanol at a concentration of 10 mcg/ml. and were injected intraperitoneally at a standard dose of 50 mcg/kg. Each compound was administered to a group of 10 rats, and a control group of 10 intact males received an equivalent amount of 10 percent ethanol. One hour after treatment all rats were killed by decapitation, and 150 μl aliquots of serum were assayed for prolactin. The results were evaluated statistically using Student's "t" test to calculate the level of significance, "p", of the changes in prolactin level.
The difference between the prolactin level of the treated rats and prolactin level of the control rats, divided by the prolactin level of the control rats gives the percent inhibition of prolactin secretion attributable to the compounds of this invention. In the table, column 1 gives the name of the compound; column 2, the prolactin level for each group of rats; column 3, the percent prolactin inhibition; and column 4, the level of significance. The data were collected from three separate experiments, each with its own control, and Table 2 sets forth the results obtained by experiment.

Data set [3] has as its system 6-hydroxydopamine-lesioned rats (dopamine agonist activity). Nature of the data set: rat turning test (turning behavior contralateral to lesion in 6-hydroxydopamine-lesioned rats). The following applies: for Average Number of Turns/rat: first 15 minutes after end of latency period. The format is in vivo. The procedure: In this test, nigro-neostriatal-lesioned rats are employed, which are prepared by the procedure of Ungerstedt and Arbuthnott, Brain Res, 24, 485 (1970). A compound having dopamine agonist activity causes the rats to turn in circles contralateral to the side of the lesion. After a latency period, which varies from compound to compound, the number of turns is counted over a 15-minute period.
The compounds were dissolved in water and the aqueous solution injected into the rat by the intraperitoneal route.

The conditions of data set [4]: background; cited from earlier work.
The test system of data set [5] is prolactin. Nature of the data set: inhibition of serum prolactin in reserpine-pretreated male rats. The format is in vivo, rat (Sprague-Dawley). Conditions: from dose response curves.
The next data set deals with serotonin. Nature of the data set: serotonin agonist activity.
The mark [6] stands for this setting: Experiment 3, 50 mcg/kg i.p., 1 hour, control 42.3 ± 7.3, P <0.001.
The mark [7] stands for this setting: Experiment 1, 50 mcg/kg i.p., 1 hour, control 30.4 ± 3.4, P <0.001 or <0.01.

SMILES strings stand for the structures. Counter-ions that a name gives are not always drawn. Like-named read-outs stand apart in the source and are kept apart here.

For the molecule `CC(C)C[C@H]1C(=O)N2CCC[C@H]2[C@]2(O)O[C@](NC(=O)[C@@H]3C=C4c5cccc6[nH]c(Br)c(c56)C[C@H]4N(C)C3)(C(C)C)C(=O)N12` [2-bromo-α-ergokryptine], the “dopamine receptor stimulation (in words)” value with dopamine receptor was “stimulate dopamine receptors”. In the data set with prolactin [1], the “prolactin inhibitor activity (in words)” value is reported as “activity as prolactin inhibitors”. Also, the “treatment of Parkinsonism (in words)” value in the data set on Parkinsonism is “useful in the treatment of Parkinsonism”.
In the case of `CSC[C@@H]1C[C@@H]2c3cccc4[nH]c(Cl)c(c34)C[C@H]2N(C)C1` [D-2-chloro-6-methyl-8β-methylmercaptomethylergoline mesylate, reference compound], the Ki at dopamine receptors was 6 nM.
As to `CCCN1CC(CSC)=C[C@@H]2c3cccc4[nH]cc(c34)C[C@H]21` [D-6-n-propyl-8-methylmercaptomethyl-8-ergolene], the Ki on dopamine receptors was 2 nM. For the same molecule, the Serum Prolactin Level in the data set on prolactin [2] (setting [6]) came to 3.9 ± 0.2 ng/mL. In addition, in the data set on prolactin [2] (1 h), the inhibition at 0.05 mg/kg is 91%. In data set [3] (IP dose 1 mg/kg, Table I), the “% of Rats Exhibiting Turning Behavior” value is listed as 100%, the “Duration of Effect” value came out at 1 h, the “Latency of Effect” value worked out at 4 min and the “Average Number of Turns/rat” value was determined as 118 Turns/rat.
`CCCN1C[C@H](CSC)C[C@@H]2c3cccc4[nH]c(Br)c(c34)C[C@H]21` [D-2-bromo-6-n-propyl-8β-methylmercaptomethylergoline]: the Ki at dopamine receptors stood at 3 nM. For the same molecule, the Serum Prolactin Level in the data set on prolactin [2] (setting [6]) was determined as 4.6 ± 0.4 ng/mL. For the same molecule, in the data set with prolactin [2] (1 h), the inhibition at 0.05 mg/kg turned out to be 89%. Further, in data set [3] (IP dose 1 mg/kg, Table I), the “% of Rats Exhibiting Turning Behavior” value is 100%, the “Duration of Effect” value was found to be 1 h, the “Latency of Effect” value was found to be 5 min and the “Average Number of Turns/rat” value was 71 Turns/rat.
Regarding `CCCN1C[C@H](C[S+](C)[O-])C[C@@H]2c3cccc4[nH]cc(c34)C[C@H]21` (stereo partly drawn) [D-6-n-propyl-8β-methylsulfinylmethylergoline], the Serum Prolactin Level in the data set with prolactin [2] (setting [6]) was 3.3 ng/mL. In addition, the inhibition at 0.05 mg/kg in the data set on prolactin [2] (1 h) was determined as 92%. Also, in data set [3] (IP dose 1 mg/kg, Table I), the “% of Rats Exhibiting Turning Behavior” value was 100%, the “Duration of Effect” value amounted to 1 h, the “Latency of Effect” value amounted to 7 min and the “Average Number of Turns/rat” value is 65 Turns/rat.
Consider `CCCN1C[C@H](COC)C[C@@H]2c3cccc4[nH]cc(c34)C[C@H]21` [D-6-n-propyl-8β-methoxymethylergoline methanesulfonate], for which the Ki at dopamine receptors was 10 nM. For the same molecule, the Serum Prolactin Level with prolactin [2] (Experiment 2, 50 mcg/kg i.p., 1 hour, control 55.2 ± 4.1, P <0.001) was determined as 2.4 ± 0.2 ng/mL. Further, the inhibition at 0.05 mg/kg in the data set on prolactin [2] (1 h) is 96%. Further, in data set [3] (IP dose 1 mg/kg, Table I), the “% of Rats Exhibiting Turning Behavior” value stood at 100%, the “Duration of Effect” value is ≥ 2 h, the “Latency of Effect” value came to 6 min and the “Average Number of Turns/rat” value amounted to 111 Turns/rat.
Take `CCN1C[C@H](CSC)C[C@@H]2c3cccc4[nH]cc(c34)C[C@H]21` [D-6-ethyl-8β-methylmercaptomethylergoline]: the affinity on dopamine receptors corresponds to a Ki of 3.5 nM. The Serum Prolactin Level in the data set with prolactin [2] (setting [6]) was determined as 3.9 ± 0.4 ng/mL. For the same molecule, in the data set with prolactin [2] (1 h), the inhibition at 0.05 mg/kg worked out at 91%. Moreover, in [3] (IP dose 1 mg/kg, Table I), the “% of Rats Exhibiting Turning Behavior” value stood at 100%, the “Duration of Effect” value is ≥ 2 h, the “Latency of Effect” value was determined as 9 min and the “Average Number of Turns/rat” value was 112 Turns/rat.
At dopamine receptors, `CSC[C@@H]1C=C2c3cccc4[nH]cc(c34)C[C@H]2N(C)C1` [D-6-methyl-8β-methylmercaptomethyl-9-ergolene, reference compound] yielded a Ki of 6 nM.
`CN1C[C@H](CC#N)C[C@@H]2c3cccc4[nH]c(Cl)c(c34)C[C@H]21` [lergotrile]: the “treatment of Parkinsonism (in words)” value in the data set on Parkinsonism is “useful in the treatment of Parkinsonism”.
The molecule `CSC[C@@H]1C[C@@H]2c3cccc4[nH]cc(c34)C[C@H]2N(C)C1` [D-6-methyl-8β-methylmercaptomethylergoline mesylate, reference compound] yielded a Ki on dopamine receptors of 13 nM. Also, the “Serum Prolactin Level” value in the data set with prolactin [2] (setting [7]) stood at 12.8. For the same molecule, the inhibition at 0.05 mg/kg with prolactin [2] (1 h) worked out at 58%. In data set [3] (IP dose 1 mg/kg, Table I), the “% of Rats Exhibiting Turning Behavior” value is reported as 50%, the “Duration of Effect in Hours” value is reported as ~ 2 Hours, the “Latency of Effect” value lay in the range of 30 to 45 min and the “Average Number of Turns/rat” value is 51 Turns/rat.
As to `CC(C)[C@H]1C(=O)N2CCC[C@H]2[C@]2(O)O[C@](NC(=O)[C@@H]3C[C@@H]4c5cccc6[nH]cc(c56)C[C@H]4N(C)C3)(C(C)C)C(=O)N12` [dihydroergocornine], the “prolactin inhibitor activity (in words)” value with prolactin [1] is “activity as prolactin inhibitors”.
As to `N[C@@H](Cc1ccc(O)c(O)c1)C(=O)O` [1-dopa, 1-dihydroxyphenylalanine], in data set [4], the “metabolism (in words)” value is “rapidly metabolized”.
For the molecule `COC[C@@H]1C[C@@H]2c3cccc4[nH]cc(c34)C[C@H]2N(C)C1` [D-6-methyl-8β-methoxymethylergoline mesylate, reference compound], at dopamine receptors, the inhibition constant (Ki) was determined as 75 nM.
On to `CN1CC(CC#N)C[C@@H]2c3cccc4[nH]cc(c34)C[C@H]21` (stereo partly drawn) [D-6-methyl-8-cyanomethylergoline], for which the “prolactin inhibitor activity (in words)” value in the data set with prolactin [1] is “activity as prolactin inhibitors”.
The molecule `CCCN1C[C@H](CSC)C=C2c3cccc4[nH]cc(c34)C[C@H]21` [D-6-n-propyl-8β-methylmercaptomethyl-9-ergolene] had a Ki at dopamine receptors of 2 nM. In addition, in the data set with prolactin [2] (setting [6]), the “Serum Prolactin Level” value was 8.1 ± 1.2. Further, in the data set with prolactin [2] (1 h), the inhibition at 0.05 mg/kg was 81%. Besides, in data set [3] (IP dose 1 mg/kg, Table I), the “% of Rats Exhibiting Turning Behavior” value is reported as 100%, the “Duration of Effect” value was ≥ 2 h, the “Latency of Effect” value worked out at 4 min and the “Average Number of Turns/rat” value is listed as 200 Turns/rat.
`CCCN1C[C@H](CSC)C[C@@H]2c3cccc4[nH]cc(c34)C[C@H]21` [D-6-n-propyl-8β-methylmercaptomethylergoline methanesulfonate] had a Ki on dopamine receptors of 3 ± 1 nM. The “potency as a prolactin inhibitor relative to the corresponding D-6-methyl compound” value in the data set with prolactin [5] is reported as “about 100 times”. Further, the Serum Prolactin Level in the data set on prolactin [2] (setting [7]) was 1.6 ± 0.4 ng/mL. Also, the inhibition at 0.05 mg/kg in the data set with prolactin [2] (Experiment 1, 50 mcg/kg i.p., 1 hour, P <0.001 (n-propyl), <0.01 (methyl)) amounted to 95%. In addition, in data set [3] (15-minute period after latency), the “average turns per lesioned rat” value is recorded as 105 turns per lesioned rat. In data set [3] (IP dose 1 mg/kg, Table I), the “Duration of Effect” value is ≥ 24 h, the “Latency of Effect” value was in the range of 5 to 7 min and the “Average Number of Turns/rat” value is given as 105 Turns/rat. Moreover, in data set [3] (from dose response curves, 6-hydroxydopamine-lesioned rats), the “potency in the turning behavior test relative to the corresponding D-6-methyl derivative” value is listed as “about 30 times”.
Turning to `CC(C)[C@H]1C(=O)N2CCC[C@H]2[C@]2(O)O[C@](NC(=O)[C@@H]3C=C4c5cccc6[nH]cc(c56)C[C@H]4N(C)C3)(C(C)C)C(=O)N12` [Ergocornine], the “dopamine receptor stimulation (in words)” value in the data set with dopamine receptor was “direct dopamine receptor stimulants of long duration”. In addition, the “prolactin inhibitor activity (in words)” value in the data set on prolactin [1] was “activity as prolactin inhibitors”.
As for `C=CCN1C[C@H](CSC)C[C@@H]2c3cccc4[nH]cc(c34)C[C@H]21` [D-6-allyl-8β-methylmercaptomethylergoline], the Ki at dopamine receptors came to 5 nM.
For `CCCN1C[C@H](CSC)C[C@@H]2c3cccc4[nH]cc(c34)C[C@H]21` [D-6-n-propyl-8β-methylmercaptomethylergoline], the “inhibition of high affinity binding of tritiated dopamine (in words)” value in the data set with dopamine receptors (bovine striatal synaptosome membranes) was “extremely potent inhibitors”. In the data set on serotonin, the “serotonin activity (in words)” value was “serotonin agonists rather than serotonin antagonists”.

The Ki is the dissociation constant of the complex between target and ligand, obtained from inhibition or displacement. Usually inhibition stands for the change of the read-out against control, counted positive when it falls.

The record behind these values is patent publication US4202979A, “6-Ethyl(or allyl)-8-methoxymethyl or methylmercaptomethylergolines and related compounds” (priority 1979, dated 1980).
